From article PMC5854716, “Synthesis, molecular docking, ctDNA interaction, DFT calculation and evaluation of antiproliferative and anti-Toxoplasma gondii activities of 2,4-diaminotriazine-thiazole derivatives” (Medicinal Chemistry Research, 2018) come the findings set out here.

≈ marks a conversion by molar mass, not a printed value.

In test [1] the test system is Toxoplasma gondii BK strain. Put plainly: T. gondii tachyzoite intracellular proliferation in VERO host cells ([3H]uracil incorporation). It is filed as cell-based. The settings on record: Toxoplasma gondii. As for the experimental part: The epithelial cell line VERO (ATCC-Catalog No. CCL-81^TM), derived from the kidney of the African green monkey, Cercopithecus aethiops and fibroblast cell line L-929 (ATCC-Catalog No. CCL-1^TM), derived from Mus musculus (http://www.atcc.org) were grown in Iscoves’s Modified Dulbecco’s Medium (IMDM) supplemented with 10% (v/v) fetal bovine serum (FBS), plus 2 mM L-glutamine, 100 U/ml penicillin, 100.00 µg/ml streptomycin, 5 × 10^−5 M 2-mercaptoethanol and maintained at 37 °C in a 10% CO2 atmosphere. Subcultures were performed via enzymatic cell dissociation in 0.25% trypsin. After dissociation, the cells were placed in culture medium at 4 °C with 10% FBS to inhibit the action of trypsin. The isolated cells were centrifuged for 10 min at 1000×g at 4 °C, and the cells were grown in new bottles. This procedure was repeated when cells reached a confluence of ~90%. All commercial reactants and solvents were purchased from either Sigma-Aldrich Laborchemikalien GmbH (Dzitko et al. [2014]).
Suspensions of the compounds 4a–l were freshly prepared (5 mg/ml DMSO) before the cells were exposed, and diluted to appropriate concentrations; 0.9, 1.8, 3.9, 7.8, 15.6, 31.2, 62.5, and 125.00 μg/ml with the culture medium. Cells treated with 2.5% DMSO-solvent served as a control in each experiment.
Stock solutions of the Sulfadiazine (100 mg/ml 1 N NaOH; Catalog No. S8626) was freshly prepared before each experiment, and diluted to appropriate concentrations: 5.00, 25.00, 50.00, 125.00, 250.00, 500.00, 1250.00, and 2500.00 μg/ml, respectively in IMDM complete medium. All commercial reactants and solvents were purchased from either Sigma-Aldrich Laborchemikalien GmbH.
Tachyzoites of T. gondii, BK strain, were maintained in female C57BL/6 (H-2^b) and BALB/c (H-2^d) mice (with genetically determined high and low susceptibility, respectively to Toxoplasma infection) via serial intraperitoneal inoculation of 10^5–10^6 parasites per mouse in phosphate-buffered saline (PBS). After 48 to 96 h, parasites were harvested via peritoneal lavage using PBS, pH 7.2, and centrifuged at 200×g for 5 min to remove blood cells and cell debris. The supernatant containing tachyzoites was collected and centrifuged again at 2000×g for 15 min. The final pellet was resuspended in IMDM, quantified in a Burker’s chamber, and used in experimental assays. Inbred mice were kept under standard laboratory conventional conditions. All experimental procedures were conducted according to guidelines of the 9. Local Ethics Commission for Experiments on Animals in Lodz.
VERO, (2 × 10^4 cells/100 µl/well) were grown in complete medium (IMDM) on 96-well plates. After 24 h incubation, a medium was removed and then T. gondii […] tachyzoites, suspended in culture medium supplemented with 0.9–125.00 μg/ml diaminotriazines 4a–l and as a control-sulfadiazine (5.0–2500.0 μg/ml), were added (2 × 10^5 tachyzoites/200 µl/well) to the cell monolayers. After subsequent 48 h incubation 1 µCi/well of [^3H] uracil (Moravek Biochemicals Inc., Brea, CA, USA) was applied to each microculture for further 18–20 h. The amount of the isotope incorporated into the parasite nucleic acid pool, corresponding to the parasite growth, was measured by liquid scintillation counting with 1450 Microbeta Plus Liquid Scintillation Counter (Wallac Oy, Turku, Finland). The cpms of host cells alone (below 250/microculture) were subtracted from cpms of T. gondii infected microcultures (Dzitko et al. [2014]).

For test [2], the system named is human breast carcinoma MCF-7 cells. Put plainly: In vitro antiproliferative assay (SRB), MCF-7. The settings on record: 72 h exposure, mean ± SD. It is filed as cell-based. As for the experimental part:
(§1) Biphenotypic B myelomonocytic leukemia MV4-11, human lung carcinoma A549, human breast carcinoma MCF-7, and normal mouse fibroblast BALB/3T3 cells were obtained from American Type Culture Collection (Rockville, Maryland, USA). All the cell lines are being maintained at the Institute of Immunology and Experimental Therapy, Wroclaw, Poland. MV4-11 cells were cultured in RPMI 1640 medium (Gibco, UK) with 2 mM L-glutamine adjusted to contain 1.0 mM sodium pyruvate, and 10% fetal bovine serum (FBS) (all from Sigma-Aldrich, Germany). A549 cells were cultured in RPMI 1640+ Opti-MEM (1:1) (both from Gibco, UK), MCF-7 cells in Eagle medium (IIET, Wroclaw, Poland), BALB/3T3 in Dulbecco medium (IIET, Poland) supplemented with 2 mM L-glutamine and 1.0 mM sodium pyruvate, 10% fetal bovine serum (all from Sigma-Aldrich, Germany). The MCF-7 cell culture was supplemented with 0.8 mg/l of insulin (Sigma-Aldrich, Germany). All culture media were supplemented with 100 units/ml penicillin, and 100 µg/ml streptomycin (both from Polfa Tarchomin S.A., Poland). All cell lines were grown at 37 °C with 5% CO2 humidified atmosphere (Łączkowski et al. [2014], [2016a]). Prior to usage, the compounds were dissolved in DMSO and culture medium (1: 9) to the concentration of 1 mg/ml, and subsequently diluted in culture medium to reach the required concentrations (0.1, 1, 10, and 100 µg/ml) (Łączkowski et al. [2014], [2016a]). Twenty-four hours prior to the addition of the tested compounds, the cells counted using Burker hemocytometer were plated in 96-well plates (Sarstedt, Germany) at a density of 1 × 10^4 cells per well. The assay was performed after 72 h of exposure to varying concentrations of the tested agents. The in vitro cytotoxic effect of all agents was examined using the SRB assay for adherent cells (A549, MCF-7, and BALB/3T3) or MTT assay for leukemia cells (MV4-11) as described previously. […] Each compound in each concentration was tested in triplicate in a single experiment, which was repeated 3–7 times (Rubinstein et al. [1990]; Bramson et al. [1995]). Cells were attached to the bottom of plastic wells by fixing them with cold 50% TCA (trichloroacetic acid, POCH, Gliwice, Poland) on top of the culture medium in each well. The plates were incubated at 4 °C for 1 h and then washed five times with tap water. The cellular material fixed with TCA was stained with 0.1% sulforhodamine B (SRB, Sigma-Aldrich, Germany) and dissolved in 1% acetic acid (POCH, Gliwice, Poland) for 30 min. Unbound dye was removed by rinsing (4×) in 1% acetic acid. The protein-bound dye was extracted with 10 mM unbuffered Tris base (Sigma-Aldrich, Germany) for determination of the optical density (λ = 540 nm) in a computer-interfaced, 96-well Synergy H4 (BioTek Instruments USA) photometer microtiter plate reader (Sidoryk et al. [2012]).

In test [3] the test system is human lung carcinoma A549 cells. Put plainly: In vitro antiproliferative assay (SRB), A549. It is filed as cell-based. As to conditions: 72 h exposure, mean ± SD. As for the experimental part:
as §1

Test [4] concerns biphenotypic B myelomonocytic leukemia MV4-11 cells. Put plainly: In vitro antiproliferative assay (MTT), MV4-11. It is filed as cell-based, human. The settings on record: 72 h exposure, mean ± SD. The procedure: Biphenotypic B myelomonocytic leukemia MV4-11, human lung carcinoma A549, human breast carcinoma MCF-7, and normal mouse fibroblast BALB/3T3 cells were obtained from American Type Culture Collection (Rockville, Maryland, USA). All the cell lines are being maintained at the Institute of Immunology and Experimental Therapy, Wroclaw, Poland. MV4-11 cells were cultured in RPMI 1640 medium (Gibco, UK) with 2 mM L-glutamine adjusted to contain 1.0 mM sodium pyruvate, and 10% fetal bovine serum (FBS) (all from Sigma-Aldrich, Germany). A549 cells were cultured in RPMI 1640+ Opti-MEM (1:1) (both from Gibco, UK), MCF-7 cells in Eagle medium (IIET, Wroclaw, Poland), BALB/3T3 in Dulbecco medium (IIET, Poland) supplemented with 2 mM L-glutamine and 1.0 mM sodium pyruvate, 10% fetal bovine serum (all from Sigma-Aldrich, Germany). The MCF-7 cell culture was supplemented with 0.8 mg/l of insulin (Sigma-Aldrich, Germany). All culture media were supplemented with 100 units/ml penicillin, and 100 µg/ml streptomycin (both from Polfa Tarchomin S.A., Poland). All cell lines were grown at 37 °C with 5% CO2 humidified atmosphere (Łączkowski et al. [2014], [2016a]).
Prior to usage, the compounds were dissolved in DMSO and culture medium (1: 9) to the concentration of 1 mg/ml, and subsequently diluted in culture medium to reach the required concentrations (0.1, 1, 10, and 100 µg/ml) (Łączkowski et al. [2014], [2016a]).
Twenty-four hours prior to the addition of the tested compounds, the cells counted using Burker hemocytometer were plated in 96-well plates (Sarstedt, Germany) at a density of 1 × 10^4 cells per well. The assay was performed after 72 h of exposure to varying concentrations of the tested agents. The in vitro cytotoxic effect of all agents was examined using the SRB assay for adherent cells (A549, MCF-7, and BALB/3T3) or MTT assay for leukemia cells (MV4-11) as described previously. The results were calculated as an inhibitory concentration 50 (IC50)—the concentration of tested agent which inhibits proliferation of 50% of the cancer cell population. Each compound in each concentration was tested in triplicate in a single experiment, which was repeated 3–7 times (Rubinstein et al. [1990]; Bramson et al. [1995]).
Twenty microliter of MTT solution (MTT: 3-(4,5-dimethylthiazol-2-yl)-2,5-diphenyltetrazolium bromide, stock solution: 5 mg/ml) was added to each well and incubated for 4 h. After the incubation time was complete, 80 µl of the lysis mixture was added to each well (lysis mixture: 225 ml dimethylformamide, 67.5 g sodium dodecyl sulfate and 275 ml of distilled water). The optical densities of the samples were read after 24 h on a Synergy H4 (BioTek Instruments USA) photometer microtiter plate reader at 570 nm (Sidoryk et al. [2012]). All of chemicals were obtained from Sigma-Aldrich, Germany.

Test [5] relates to normal mouse fibroblast Balb/3T3 cells. Put plainly: In vitro cytotoxicity (SRB), Balb/3T3. In kind it is cell-based. The settings on record: 72 h exposure, mean ± SD. As for the experimental part:
as §1

Compound `Nc1ccc(S(=O)(=O)Nc2ncccn2)cc1` [Sulfadiazine, reference compound] displayed an activity at 5 µg/mL in test [1] (5.00 µg/ml, VERO host cells) of 92%. Moreover, the activity at 25 µg/mL in test [1] (25.00 µg/ml, VERO host cells) was found to be 80.5%. This compound also displayed an activity at 50 µg/mL in test [1] (50.00 µg/ml, VERO host cells) of 70.7%. Moreover, the activity at 125 µg/mL in test [1] (125.00 µg/ml, VERO host cells (Table 3)) was found to be 55.2%. In test [1] (250.00 µg/ml, VERO host cells), this compound had an activity at 250 µg/mL of 52.8%. The activity at 500 µg/mL in test [1] (500.00 µg/ml, VERO host cells) came to 41.6%. In test [1] (1250.00 µg/ml, VERO host cells), this compound gave an activity at 1250 µg/mL of 39.7%. For the same compound, the activity at 2500 µg/mL in test [1] (2500.00 µg/ml, VERO host cells) was 39.6%. In test [1] (VERO host cells, GraphPad Prism curves, read-out: IC50 (50% inhibition of T. gondii proliferation in vitro)), the IC50 was 1020 µg/mL (≈ 4.09 mM).
Take `N.N.[Cl][Pt][Cl]` [cis-platin, reference compound]: the “IC50 MCF-7” value in test [2] came out at 2.33 ± 0.465 µg/mL. Also, in test [3], the “IC50 A549” value is 2.69 ± 1.119 µg/mL. Also, the “IC50 MV4-11” value in test [4] came to 0.22 ± 0.11 µg/mL. For the same compound, the “IC50 Balb/3T3” value in test [5] was determined as 2.55 ± 0.588 µg/mL.
